Measured values reported in patent US10519145B2, “Pyrazole-oxazolidinone compound for anti-hepatitis B virus” (Shanghai Zhimeng Biopharma Co., Ltd., priority 2016, dated 2019).

Assays:
HBV strain U95551 (WT) = test: In vitro anti-nucleoside drug-resistant HBV strain activity experiment, transient transfection; type: cell-based; settings: Hepatitis B virus, transfected HepG2 cells
Method: (§1) Compounds were tested for in vitro activity against nucleoside drug-resistant HBV strains using a transient transfection cell model. HepG2 cells (4×10^4 cells/well) that had been transfected with nucleoside drug-resistant HBV strains were seeded into 96-well plates and cultured overnight at 37° C. in 5% CO2. The next day, fresh cultures containing compounds in different concentrations were added into the culture wells. On the fifth day, the old culture medium in the culture wells was aspirated and removed. The fresh medium containing compounds in different concentrations was added. On the eighth day, supernatants in the culture wells were collected and used to extract HBV DNA in the supernatant. qPCR assay was used to detect HBV DNA content in the HepG2 supernatant.

[1] = tested on: nucleoside drug-resistant HBV strain M204I; test: as above; type: cell-based; settings: Hepatitis B virus, HepG2
Method: as §1

[2] = tested on: nucleoside drug-resistant HBV strain M204I + S202G + M250V; test: as above; type: cell-based; settings: Hepatitis B virus, HepG2, 192 h
Method: as §1

[3] = tested on: nucleoside drug-resistant HBV strain L180M + M204V; test: as above; type: cell-based; settings: Hepatitis B virus, HepG2, 192 h
Method: as §1

[4] = tested on: nucleoside drug-resistant HBV strain M204I + S202G; test: as above; type: cell-based; settings: Hepatitis B virus, HepG2, 192 h
Method: as §1

[5] = tested on: nucleoside drug-resistant HBV strain M204I + V173L; test: as above; type: cell-based; settings: Hepatitis B virus, HepG2, 192 h
Method: as §1

[6] = tested on: HBV genotype AB033554 (B); test: Anti-different genotypic HBV strain activity assay in vitro, transient transfection; type: cell-based; settings: Hepatitis B virus, HepG2
Method: (§2) Compounds were tested for in vitro activity against different genotypic HBV strains using a transient transfection cell model. HepG2 cells (4×10^4 cells/well) that had been transfected with different HBV genotypic strains were seeded into 96-well plates and cultured overnight at 37° C. in 5% CO2. The next day, fresh cultures containing compounds in different concentrations were added into the culture wells. On the fifth day, the old culture medium in the culture wells was aspirated and removed. The fresh medium containing compounds in different concentrations was added. On the eighth day, supernatants in the culture wells were collected and used to extract HBV DNA in the supernatant. qPCR assay was used to detected HBV DNA content in the HepG2 supernatant.

[7] = tested on: HBV genotype AB246346 (C); test: as above; type: cell-based; settings: Hepatitis B virus, HepG2
Method: as §2

HBV genotype U95551 (D) = test: as above; type: cell-based; settings: Hepatitis B virus, HepG2
Method: as §2

[8] = tested on: HBV genotype AB246345 (C); test: as above; type: cell-based; settings: Hepatitis B virus, HepG2
Method: as §2

[9] = tested on: HBV genotype AP007263 (A); test: as above; type: cell-based; settings: Hepatitis B virus, HepG2
Method: as §2

[10] = tested on: HBV genotype JN406371 (B); test: as above; type: cell-based; settings: Hepatitis B virus, HepG2
Method: as §2

[11] = tested on: HBV genotype HE974371 (A2); test: as above; type: cell-based; settings: Hepatitis B virus, HepG2
Method: as §2

HBV (HepG2.2.15 cells) = test: Anti-HBV activity experiment in vitro (HepG2.2.15, HBV DNA in supernatant, qPCR); type: cell-based; settings: Hepatitis B virus, HBV DNA in supernatant by qPCR, eighth day
Method: Compound Dilution: initial concentrations of all compounds used in the anti-HBV activity experiments in vitro were 1 μM, 3-fold diluted into 8 concentrations; initial concentrations of all compounds used in the cytotoxicity assay were 100 μM, 3-fold diluted into 8 concentrations; and the mother liquor of the compound was diluted with DMSO.
Anti-HBV Activity Experiment In Vitro: HepG2.2.15 cells (4×10^4 cells/well) were seeded in 96-well plates and cultured overnight at 37° C. in 5% CO2. The next day, fresh cultures containing compounds in different concentrations were added into the culture wells. On the fifth day, the old culture medium in the culture wells was aspirated and removed. Fresh medium containing compounds in different concentrations was added. On the eighth day, supernatants in the culture wells were collected and used to extract HBV DNA in the supernatant. qPCR assay was used to detect HBV DNA content in the HepG2.2.15 supernatant.
The data analysis and the percentage of inhibition calculation: the percentage of inhibition was calculated by using the following formula: Inhibition %=[(HBV amount in DMSO control−HBV amount in sample)/HBV amount in DMSO control]×100%.

[12] = Pharmacokinetic determination in mice (subcutaneous); type: in vivo; settings: sc, female BALB/c mouse, single administration, plasma
Method: In addition, the pharmacokinetics of the compound of Example 3 (R isomer) in the present application was determined in mice.
Test compounds were subcutaneously administered to female BALB/c mouse once and blood samples were taken at different time points. LC/MS/MS was used to determine the concentration of the test compounds in the […] plasma after administration of the test compounds and calculate relevant parameters.
Animal blood collection time points were: before administration, 5 min, […], 30 min, 1 h, 2 h, 4 h, 8 h and 24 h after administration.
Mass Spectrometer: Triple Quad 5500. Mass Spectrometry Conditions: SRM Detection
Liquid phase conditions: Column: XSELECT CSHTM XP C18 (2.1×50 mm, 2.5 μm); chromatographic mobile phase: mobile phase A: 0.025% FA & 1 mM NH4OAc in water/CAN solution (v:v, 95: 5), mobile phase B: 0.025% FA & 1 mM NH4OAc in ACN/water solution (v:v, 95: 5) (A:B =65%: 35%-10%: 90%); flow rate: 0.6 mL/min; column temperature: 50° C.
(§3) According to the drug blood concentration data, the pharmacokinetic parameters of the test compound were calculated using the pharmacokinetic calculation software WinNonlin 5.2 non-compartmental model.

HBV DNA in mouse plasma = test: Determination of pharmacodynamics in vivo (high pressure tail vein injection of HBV DNA); settings: 25 mpk, intraperitoneal daily
Method: High pressure injection of HBV DNA in tail vein and administration methods:
HBV plasmid DNA solution was high-pressure injected via the tail veins of the mouse: the plasmid DNA was pre-dissolved in physiological saline (10 μg/1.4 ml, 10 μg/1.5 ml) before injection and stored at 4 until its use. The mice were injected with a plasmid DNA solution at a dosage of 8% of the body weight from the tail vein in 5 seconds. If the injection volume is less than or equal to 1.4 ml, 10 μg/1.4 ml of plasmid solution was used; if the injection volume is greater than or equal to 1.5 ml, 10 μg/1.5 ml of plasmid solution was used.
On 1st-7th day, the mice were continuously injected intraperitoneally with the test compound or solvent for 7 days. […] The plasma was divided into two and one was sent to anti-infective groups in the Department of Biology for HBV DNA detection, and the other was ready for use. […]
Quantitative PCR was used to detect the content of HBV DNA in mouse plasma. […]
Quantitative PCR detection of HBV DNA content: In order to rule out possible interference with injected HBV plasmid DNA, two sets of primers and probes were used simultaneously for the assay. […]
HBV DNA content =DNA content detected by HBV primers - DNA content detected by pAAV2 primers

[13] = Pharmacokinetic determination in rats (IV and PO); type: in vivo, Sprague Dawley rats; settings: rat
Method: The pharmacokinetics of the compound of Example 3 (racemate) in the present application was determined in rats.
Test compounds were intravenously (IV) and orally (P0) administered to Sprague Dawley rats once. Blood samples were collected at different time points. LC/MS/MS was used to determine the concentration of the test compounds in the rat plasma after the administration of the test compounds and calculate the relating parameters.
Time points for animal blood collection were: before administration, 5 min, 15 min, 30 min, 1 h, 2 h, 4 h, 6 h, 8 h and 24 h after administration. Approximately 0.3 mL of blood via jugular or other appropriate venipuncture was collected from each animal and anticoagulated with heparin sodium. Blood samples were collected and placed on ice, and plasma was centrifuged (centrifugation: 8000 rpm, 6 min, 4° C.). Plasma samples were stored in a −70° C. freezer before analysis.
50 μL of sample was taken into a 1.5 mL centrifuge tube, and 250 μL of internal standard solution was added. After subjected to vortex for 60 seconds and centrifugation for 5 min (14,000 revolutions/min), 200 μL of supernatant was taken into a 96-well sample plate for analysis.
Mass spectrometer: API 4000, Applied Biosystems, Inc., Electrospray Ionization Source (ESI), Tandem quadrupole mass analyzer.
Mass spectrometry conditions: ion source: electrospray ionization source (ESI); auxiliary gas (Gas1): 60 psi; auxiliary gas (Gas2): 60 psi; curtain gas (CUR): 14 psi; collision gas (CAD): 6; ion source voltage (IS): 5500V; ion source temperature (TEM): 550° C.
Liquid phase conditions: chromatography Column: Thermo AQUASIL C18 (50×2.1 mm); chromatographic mobile phase: A is 0.1% formic acid in water, solution B is 0.1% formic acid in methanol (A:B=80%: 20%-10%: 90%); flow rate: 500 μL/min; injection volume: 1 μL.
as §3

[14] = Sprague Dawley, IV, single administration, plasma
[15] = Sprague Dawley, PO, single administration, plasma

Compound | EC50 (HBV strain U95551 (WT)) [nM] | EC50 [1] [nM] | EC50 [2] [nM] | EC50 [3] [nM] | EC50 [4] [nM] | EC50 [5] [nM] | EC50 [6] [nM] | EC50 [7] [nM] | EC50 (HBV genotype U95551 (D)) [nM] | EC50 [8] [nM] | EC50 [9] [nM] | EC50 [10] [nM] | EC50 [11] [nM] | EC50 (HBV (HepG2.2.15 cells)) [nM] | further results
O=C1Cc2cc(CCN3C(=O)COC3c3cn(-c4ccc(Br)cc4)nc3-c3ccc(F)cc3)ccc2N1 (racemic) [example 13 racemate] | 82 | 75.8 | 87.4 | 102 | 74.7 | 72.2 | 47 | 59.2 | 86.8 | 30.9 | 168 | 36 | 32.5 | 22 | –
O=C1CO[C@H](c2cn(-c3ccc(Br)cc3)nc2-c2ccc(F)cc2)N1CCc1ccc2[nH]c(=O)[nH]c2c1 [example 3 R isomer, (R)-3-(2-(2-oxo-2,3-dihydro-1H-benzo[d]imidazol-5-yl)ethyl)-2-(1-(4-bromophenyl)-3-(4-fluorophenyl)-1H-pyrazol-4-yl)-oxazolidin-4-one] | 19.1 | 21.2 | 13.6 | 18.9 | 11.6 | 14 | 13.6 | 14.6 | 14.4 | 6.26 | 33.9 | 8.69 | 4.67 | 7.68 | AUC(0-inf) [12]: 2080 ng·h/mL; Cmax [12]: 643 ng/mL; Tmax [12]: 1.33 h; half-life [12]: 1.19 h; MRT inf ([12]; read-out: MRT0-inf): 2.4 h; decrease of HBV DNA content in mouse plasma (HBV DNA in mouse plasma; 1st day): 0.55 log; decrease of HBV DNA content in mouse plasma (HBV DNA in mouse plasma; 3rd day): 1.84 log
Nc1ccn([C@@H]2CS[C@H](CO)O2)c(=O)n1 [Lamivudine, 3′-thio-2′,3′-dideoxycytidine, reference compound] | 94.9 | > 100000 | > 100000 | > 100000 | > 100000 | > 100000 | 156 | 128 | 123 | 97.2 | 136 | 112 | 136 | – | –
O=C1COC(c2cn(-c3ccc(Br)cc3)nc2-c2ccc(F)cc2)N1CCc1ccc2[nH]c(=O)[nH]c2c1 (racemic) [example 3 racemate, 3-(2-(2-oxo-2,3-dihydro-1H-benzo[d]imidazol-5-yl)ethyl)-2-(1-(4-bromophenyl)-3-(4-fluorophenyl)-1H-pyrazol-4-yl)-oxazolidin-4-one] | – | – | – | – | – | – | – | – | – | – | – | – | – | 31.2 | Vd ([13]; Sprague Dawley, plasma, IV, single administration, read-out: Vz): 6.22 L/kg; AUC(0-inf) [13, 14]: 3880 ng·h/mL; Cmax [13, 14]: 5460 ng/mL; Tmax [13, 14]: 0.083 h; half-life [13, 14]: 3.52 h; AUC(0-inf) [13, 15]: 773 ng·h/mL; Cmax [13, 15]: 201 ng/mL; Tmax [13, 15]: 0.83 h; half-life [13, 15]: 2.07 h; CLz ([13]; IV, single administration): 21.8 mL/min/kg; F ([13]; PO vs IV): 18.55%; Vz ([13]; PO, single administration): 3.58 L/kg
